{"source": "patent US12472193B2", "about": "“Methods and compositions for treating and preventing respiratory related diseases and conditions with xylitol-headgroup lipid analogs” (National Jewish Health, priority 2017, dated 2025)", "key": {"TLR 3 ectodomain": {"target": "T1, TLR 3 ectodomain (Homo sapiens, UniProt O15455)", "T1 construct": "purchased R&D system", "T1 sequence (O15455 24-704 limits assumed)": "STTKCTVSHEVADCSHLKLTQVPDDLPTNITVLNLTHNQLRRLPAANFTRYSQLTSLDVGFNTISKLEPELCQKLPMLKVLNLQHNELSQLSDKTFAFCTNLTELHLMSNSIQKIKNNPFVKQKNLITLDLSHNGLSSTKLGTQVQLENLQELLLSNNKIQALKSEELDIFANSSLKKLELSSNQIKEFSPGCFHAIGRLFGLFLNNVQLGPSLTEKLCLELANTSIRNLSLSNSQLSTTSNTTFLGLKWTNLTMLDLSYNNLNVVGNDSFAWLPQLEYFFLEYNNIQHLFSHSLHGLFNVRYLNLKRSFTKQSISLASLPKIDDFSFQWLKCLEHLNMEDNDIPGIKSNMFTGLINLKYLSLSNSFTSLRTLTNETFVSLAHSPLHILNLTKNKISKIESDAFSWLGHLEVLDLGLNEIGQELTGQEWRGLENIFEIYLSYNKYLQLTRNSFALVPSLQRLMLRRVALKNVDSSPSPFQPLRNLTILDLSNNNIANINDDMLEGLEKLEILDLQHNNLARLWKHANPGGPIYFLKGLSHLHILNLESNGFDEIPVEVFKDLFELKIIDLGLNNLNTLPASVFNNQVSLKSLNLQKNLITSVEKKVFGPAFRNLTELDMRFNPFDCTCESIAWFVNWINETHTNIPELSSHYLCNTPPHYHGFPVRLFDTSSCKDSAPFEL", "assay": "Binding of TLR 3 ectodomain to solid phase phospholipid", "conditions": "for binding to TLR 3 ectodomain: 0.625 nmol lipid per well, 6 μg/mL TLR 3 protein; for concentration-dependent binding of TLR 3: binding curves", "protocol": "Lipids were dried under a stream of nitrogen and resuspended i 100% ethanol, and 0.625 nmol was added in a 40 μL volume to each well of a half-area, 96-well plate. The solvent was evaporated under warm air for 90 minutes. 120 μL of blocking solution (150 mM NaCl, 20 mM sodium acetate pH 5.5 containing 3% BSA w/v) was added to each well and incubated for 1 hour at room temperature. Wells were then washed with (150 mM NaCl, 20 mM sodium acetate pH 5.5) followed by the addition of 40 μL of 6 μg/mL TLR 3 ectodomain in blocking solution to each well and the plate was incubated at 37° C. for 1 hour. The wells were washed 3 times and 40 μL of human TLR 3 primary antibody, diluted 1:500, was added and incubated overnight at 4° C. After washing out the primary antibody with (150 mM NaCl, 20 mM Tris pH 7.4), a secondary (rabbit anti-goat) antibody conjugated to horseradish peroxidase (HRP), diluted 1:1000, was added in 40 μL aliquots to each well and incubated at 37° C. for 1 hour. After washing, the peroxidase activity was detected with the substrate o-phenylenediamine and the absorbance read at 490 nm to detect degree of binding.\nSolid phase lipid binding to fluid phase TLR 3 ectodomain was examined as a potential explanation for the differences in activity. Lipids were dried under a stream of nitrogen and resuspended in 100% ethanol. 0.625 nmol of lipid was plated per well in a 96-well plate and dried for 90 minutes. BSA was used to block non-specific binding and then TLR 3 protein was added to each well at 6 μg/mL and incubated at 37° C. for one hour. After washing out unbound protein, primary antibody was added for detection of TLR 3 and incubated overnight at 4° C. The following day secondary antibody conjugated to HRP was added to the wells and the peroxidase reaction activated by o-phenylenediamine. The absorbance was read at 490 nm to detect binding."}, "TLR 5": {"target": "T2, TLR 5 (Homo sapiens, UniProt O60602)", "T2 construct": "endogenous in cells; host or cells: BEAS2B (ATCC)", "T2 sequence (O60602 21-858)": "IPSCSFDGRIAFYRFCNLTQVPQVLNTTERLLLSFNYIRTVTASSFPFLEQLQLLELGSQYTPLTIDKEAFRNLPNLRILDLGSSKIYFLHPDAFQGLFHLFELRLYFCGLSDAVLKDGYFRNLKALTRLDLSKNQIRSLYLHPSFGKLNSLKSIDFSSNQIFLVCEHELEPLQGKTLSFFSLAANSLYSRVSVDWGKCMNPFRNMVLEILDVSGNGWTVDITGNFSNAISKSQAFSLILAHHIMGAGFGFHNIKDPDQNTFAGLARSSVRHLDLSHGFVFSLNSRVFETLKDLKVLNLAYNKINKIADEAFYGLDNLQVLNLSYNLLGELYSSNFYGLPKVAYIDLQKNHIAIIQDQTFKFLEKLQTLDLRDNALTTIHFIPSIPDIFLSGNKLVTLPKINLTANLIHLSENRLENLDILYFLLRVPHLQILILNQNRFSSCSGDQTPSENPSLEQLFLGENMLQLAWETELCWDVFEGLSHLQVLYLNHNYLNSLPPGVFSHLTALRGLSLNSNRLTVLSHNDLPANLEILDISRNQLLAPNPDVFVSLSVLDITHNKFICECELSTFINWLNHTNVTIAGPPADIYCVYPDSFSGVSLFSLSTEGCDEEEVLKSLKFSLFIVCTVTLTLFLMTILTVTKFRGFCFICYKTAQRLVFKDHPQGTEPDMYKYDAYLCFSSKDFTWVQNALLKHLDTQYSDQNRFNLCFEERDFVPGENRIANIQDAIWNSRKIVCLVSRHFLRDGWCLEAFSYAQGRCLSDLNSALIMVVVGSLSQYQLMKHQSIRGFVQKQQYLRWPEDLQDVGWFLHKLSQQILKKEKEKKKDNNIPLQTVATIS", "assay": "Flagellin-induced IL-8 in BEAS2B cells (TLR 5 antagonism)", "type": "cell-based", "conditions": "lipid alone", "protocol": "Human bronchial epithelial cells, BEAS2B, were obtained from ATCC and maintained in bronchial epithelial cell growth medium (BEGM), supplemented with the BulleKit from Lonza in accordance with protocol (M. H. Hudy, S. et al., “Cigarette smoke modulates rhinovirus-induced airway epithelial cell chemokine production.,” Eur. Respir. J., vol. 35, no. 6, pp. 1256-63, June 2010). Cells were cultured at 37 C with 5% carbon dioxide:95% air atmosphere maintained within the incubator. Experiments were conducted in 48-well plates and cells were seated at a density of 5×10^4 per well. After 24 hours, the BEGM medium was replaced with RPMI-1640 medium and incubated for an additional 24 hours. Liposomes were prepared as described above. […] Subsequently, media were collected, diluted and an enzyme-linked immunosorbent assay (ELISA) was performed to quantify IL-8 release by cells.\nTLR 5 is an extracellular member of the TLR family. […] To address whether xylitol analogs antagonize TLR activation due to disruption or destruction of all membrane signaling, PX lipids were assessed at the highest concentration used in experiments reported in this example in human bronchial epithelial cells, BEAS2B, for antagonism of flagellin activation of TLR 5. The cytokine, IL-8, was quantified as an output of TLR 5 activation."}}}
{"compound": "CCCCCCCC/C=C\\CCCCCCCC(=O)O[C@H](COC(=O)CCCCCCCCCCCCCCC)COP(=O)(O)OCC(O)CO", "note": "(stereo partly drawn) [POPG, palmitoyl-oleoyl-phosphatidylglycerol, reference compound]", "values": [{"measurement": "binding to TLR 3 ectodomain", "setting": "TLR 3 ectodomain", "result": "specific binding to TLR 3 ectodomain"}, {"measurement": "concentration-dependent binding of TLR 3", "setting": "TLR 3 ectodomain", "result": "significantly different from POPC"}]}
{"compound": "CCCCCCC=CCCCCCCCC(=O)OCC(COP(=O)(O)OCC(O)C(O)C(O)CO)OC(=O)CCCCCCCC=CCCCCCC", "note": "(mixture of isomers) [16:1 DPPX, sn-1-palmitoleoyl, sn-2-palmitoleoyl sn-3 glycerol phosphoxylitol]", "values": [{"measurement": "concentration-dependent binding of TLR 3", "setting": "TLR 3 ectodomain", "result": "significantly different from POPC"}, {"measurement": "IL-8 secretion in the absence of Flagellin stimulus", "setting": "TLR 5", "result": "stimulate IL-8 secretion over that of the control"}]}
{"compound": "CCCCCCCCC=CCCCCCCCCOCC(COP(=O)(O)OCC(O)C(O)C(O)CO)OCCCCCCCCC=CCCCCCCCC", "note": "(mixture of isomers) [18:1 DEPX, sn-1-O-octadecenyl, sn-2-O-octadecenyl sn-3 glycerol phosphoxylitol]", "values": [{"measurement": "binding to TLR 3 ectodomain", "setting": "TLR 3 ectodomain", "result": "not statistically different from POPG"}, {"measurement": "concentration-dependent binding of TLR 3", "setting": "TLR 3 ectodomain", "result": "significantly different from POPC"}]}
{"compound": "CCCCCCCCCCCCCCOC[C@H](COP(=O)(O)OCC(O)C(O)C(O)CO)OCCCCCCCCCCCCCC", "note": "(mixture of isomers) [14:0 DEPX, sn-1-O-myristyl, sn-2-O-myristyl sn-3 glycerol phosphoxylitol]", "values": [{"measurement": "binding to TLR 3 ectodomain", "setting": "TLR 3 ectodomain", "result": "all xylitol analogs except 14:0 DEPX demonstrated specific binding"}]}
{"compound": "CCCCCC=CCC=CCCCCCCCC(=O)OCC(COP(=O)(O)OCC(O)C(O)C(O)CO)OC(=O)CCCCCCCC=CCC=CCCCCC", "note": "(mixture of isomers) [18:2 DLPX, sn-1-linoleoyl, sn-2-linoleoyl sn-3 glycerol phosphoxylitol]", "values": [{"measurement": "binding to TLR 3 ectodomain", "setting": "TLR 3 ectodomain", "result": "not statistically different from POPG"}, {"measurement": "IL-8 secretion in the absence of Flagellin stimulus", "setting": "TLR 5", "result": "stimulate IL-8 secretion over that of the control"}]}
